Test results reported in patent publication US20050070510A1, “Substituted tetracycline compounds as synergistic antifungal agents” (Paratek Pharmaceuticals, Inc., priority 2001, published 2005).

Test system: COS-1 cells
Experiment: In vitro mammalian cytotoxicity assay (Resazurin)

Row | Structure (SMILES) | In Vitro Cytotoxicity
1 | CCc1cc(-c2ccc(N(C)C)cc2)c2c(c1O)C(=O)C1=C(O)[C@]3(C#N)C(=O)C(C(N)=O)=C(O)[C@@H](N(C)C)[C@]3(N)C[C@]1(N)C2 [PE] | ** (toxicities less than 25 μg/mL are represented by **)
2 | CN(C)[C@@H]1C(O)=C(C(N)=O)C(=O)[C@@]2(C#N)C(O)=C3C(=O)c4c(O)ccc(-c5ccc(NC(=O)OC(C)(C)C)cc5)c4C[C@@]3(N)C[C@@]12N [PF] | ** (toxicities less than 25 μg/mL are represented by **)
3 | CN(C)[C@@H]1C(O)=C(C(N)=O)C(=O)[C@@]2(C#N)C(O)=C3C(=O)c4c(O)ccc(-c5ccc(NC(=O)Nc6ccc(OC(F)(F)F)cc6)cc5)c4C[C@@]3(N)C[C@@]12N [PH] | * (toxicities greater than >25 μg/ml are represented by *)
4 | COc1ccc(CNCc2ccc(-c3ccc(O)c4c3C[C@@]3(N)C[C@@]5(N)[C@H](N(C)C)C(O)=C(C(N)=O)C(=O)[C@@]5(C#N)C(O)=C3C4=O)cc2)cc1 [PI] | ** (toxicities less than 25 μg/mL are represented by **)
5 | CN(C)[C@@H]1C(O)=C(C(N)=O)C(=O)[C@@]2(C#N)C(O)=C3C(=O)c4c(O)ccc(-c5ccc(CN6CCCC6)o5)c4C[C@@]3(N)C[C@@]12N [PJ] | * (toxicities greater than >25 μg/ml are represented by *)
6 | Cc1ccc(-c2ccc(O)c3c2C[C@@]2(N)C[C@@]4(N)[C@H](N(C)C)C(O)=C(C(N)=O)C(=O)[C@@]4(C#N)C(O)=C2C3=O)cc1N [PK] | ** (toxicities less than 25 μg/mL are represented by **)
7 | CN(C)[C@@H]1C(O)=C(C(N)=O)C(=O)[C@@]2(C#N)C(O)=C3C(=O)c4c(O)ccc(-c5ccc(I)c(C=O)c5)c4C[C@@]3(N)C[C@@]12N [PL] | ** (toxicities less than 25 μg/mL are represented by **)
8 | CN(C)[C@@H]1C(O)=C(C(N)=O)C(=O)[C@@]2(C#N)C(O)=C3C(=O)c4c(O)ccc(-c5cc(F)cc(F)c5)c4C[C@@]3(N)C[C@@]12N [PM] | ** (toxicities less than 25 μg/mL are represented by **)
9 | CN(C)[C@@H]1C(O)=C(C(N)=O)C(=O)[C@@]2(C#N)C(O)=C3C(=O)c4c(ccc(-c5ccc(C=O)c6ccccc56)c4O)[C@H](N)[C@@]3(N)[C@H](O)[C@@]12N [PN] | ** (toxicities less than 25 μg/mL are represented by **)
10 | CN(C)[C@@H]1C(O)=C(C(N)=O)C(=O)[C@@]2(C#N)C(O)=C3C(=O)c4c(ccc(-c5ccc(C(=O)F)c6ccccc56)c4O)[C@H](N)[C@@]3(N)[C@H](O)[C@@]12N [PO] | ** (toxicities less than 25 μg/mL are represented by **)
11 | CN(C)[C@@H]1C(O)=C(C(N)=O)C(=O)[C@@]2(C#N)C(O)=C3C(=O)c4c(ccc(-c5cccc(C(N)=O)c5)c4O)[C@H](N)[C@@]3(N)[C@H](O)[C@@]12N [PP] | ** (toxicities less than 25 μg/mL are represented by **)
12 | COc1ccc(-c2ccc3c(c2O)C(=O)C2=C(O)[C@]4(C#N)C(=O)C(C(N)=O)=C(O)[C@@H](N(C)C)[C@]4(N)[C@@H](O)[C@]2(N)[C@H]3N)cc1CN1CCCC1 [PQ] | * (toxicities greater than >25 μg/ml are represented by *)
13 | COc1ccc(CN2CCCC2)cc1-c1ccc2c(c1O)C(=O)C1=C(O)[C@]3(C#N)C(=O)C(C(N)=O)=C(O)[C@@H](N(C)C)[C@]3(N)[C@@H](O)[C@]1(N)[C@H]2N [PR] | * (toxicities greater than >25 μg/ml are represented by *)
14 | COC(=O)c1cc(N)cc(-c2ccc(O)c3c2C[C@@]2(N)C[C@@]4(N)[C@H](N(C)C)C(O)=C(C(N)=O)C(=O)[C@@]4(C#N)C(O)=C2C3=O)c1 [PT] | * (toxicities greater than >25 μg/ml are represented by *)
15 | CN(C)[C@@H]1C(O)=C(C(N)=O)C(=O)[C@@]2(C#N)C(O)=C3C(=O)c4c(O)c(-c5cccc6c5OCO6)cc(-c5ccc6c(c5)OCO6)c4[C@H](N)[C@@]3(N)[C@H](O)[C@@]12N [PU] | ** (toxicities less than 25 μg/mL are represented by **)
16 | CN(C)[C@@H]1C(O)=C(C(N)=O)C(=O)[C@@]2(C#N)C(O)=C3C(=O)c4c(ccc(-c5ccc6c(c5)OCO6)c4O)[C@H](N)[C@@]3(N)[C@H](O)[C@@]12N [PV] | ** (toxicities less than 25 μg/mL are represented by **)
17 | CN(C)c1cc(CCC2(O)CCCC2)c(O)c2c1C[C@@]1(N)C[C@@]3(N)[C@H](N(C)C)C(O)=C(C(N)=O)C(=O)[C@@]3(C#N)C(O)=C1C2=O [PW] | ** (toxicities less than 25 μg/mL are represented by **)
18 | CN(C)[C@@H]1C(O)=C(C(N)=O)C(=O)[C@@]2(C#N)C(O)=C3C(=O)c4c(O)c(-c5ccccc5)cc(-c5ccccc5)c4[C@H](N)[C@@]3(N)[C@H](O)[C@@]12N [PX] | ** (toxicities less than 25 μg/mL are represented by **)
19 | COCCOC(=O)Nc1ccc(-c2ccc(O)c3c2C[C@@]2(N)C[C@@]4(N)[C@H](N(C)C)C(O)=C(C(N)=O)C(=O)[C@@]4(C#N)C(O)=C2C3=O)cc1 [PY] | * (toxicities greater than >25 μg/ml are represented by *)
20 | CN(C)[C@@H]1C(O)=C(C(N)=O)C(=O)[C@@]2(C#N)C(O)=C3C(=O)c4c(O)c(C(C)(C)C)cc(C(=O)Cl)c4C[C@@]3(N)C[C@@]12N [QA] | ** (toxicities less than 25 μg/mL are represented by **)
21 | CN(C)[C@@H]1C(O)=C(C(N)=O)C(=O)[C@@]2(C#N)C(O)=C3C(=O)c4c(O)ccc(-c5ccc(F)c(F)c5)c4C[C@@]3(N)C[C@@]12N [QB] | ** (toxicities less than 25 μg/mL are represented by **)

Row | Structure (SMILES) | In Vitro Cytotoxicity
22 | CN(C)[C@@H]1C(O)=C(C(N)=O)C(=O)[C@@]2(C#N)C(O)=C3C(=O)c4c(ccc(-c5cc6ccccc6o5)c4O)[C@H](N)[C@@]3(N)[C@H](O)[C@@]12N [QC] | ** (toxicities less than 25 μg/mL are represented by **)
23 | COc1ccc(-c2ccc(O)c3c2C[C@@]2(N)C[C@@]4(N)[C@H](N(C)C)C(O)=C(C(N)=O)C(=O)[C@@]4(C#N)C(O)=C2C3=O)cc1CN [QD] | * (toxicities greater than >25 μg/ml are represented by *)
24 | COc1ccc(-c2ccc(O)c3c2C[C@@]2(N)C[C@@]4(N)[C@H](N(C)C)C(O)=C(C(N)=O)C(=O)[C@@]4(C#N)C(O)=C2C3=O)cc1 [QF] | ** (toxicities less than 25 μg/mL are represented by **)
25 | CCOc1ccc(-c2ccc(O)c3c2C[C@@]2(N)C[C@@]4(N)[C@H](N(C)C)C(O)=C(C(N)=O)C(=O)[C@@]4(C#N)C(O)=C2C3=O)cc1CNC(=O)NC(C)(C)C [QG] | * (toxicities greater than >25 μg/ml are represented by *)
26 | CN(C)[C@@H]1C(O)=C(C(N)=O)C(=O)[C@@]2(C#N)C(O)=C3C(=O)c4c(O)ccc(-c5ccc(C(C)(C)C)cc5)c4C[C@@]3(N)C[C@@]12N [QH] | ** (toxicities less than 25 μg/mL are represented by **)
27 | CC(C)NCc1ccc(-c2ccc(O)c3c2[C@H](N)[C@]2(N)C(=C(O)[C@]4(C#N)C(=O)C(C(N)=O)=C(O)[C@@H](N(C)C)[C@]4(N)[C@H]2O)C3=O)o1 [QK] | * (toxicities greater than >25 μg/ml are represented by *)
28 | COc1ccc(CNCc2cccc(F)c2)cc1-c1ccc(O)c2c1[C@H](N)[C@]1(N)C(=C(O)[C@]3(C#N)C(=O)C(C(N)=O)=C(O)[C@@H](N(C)C)[C@]3(N)[C@H]1O)C2=O [QL] | * (toxicities greater than >25 μg/ml are represented by *)
29 | CN(C)[C@@H]1C(O)=C(C(N)=O)C(=O)[C@@]2(C#N)C(O)=C3C(=O)c4c(O)c(NC(=O)OCC(C)(C)C)cc(CN)c4C[C@@]3(N)C[C@@]12N [QM] | * (toxicities greater than >25 μg/ml are represented by *)
30 | CN(C)c1ccc(-c2cc(CN)c(O)c3c2C[C@@]2(N)C[C@@]4(N)[C@H](N(C)C)C(O)=C(C(N)=O)C(=O)[C@@]4(C#N)C(O)=C2C3=O)cc1 [QN] | * (toxicities greater than >25 μg/ml are represented by *)
31 | CN(C)c1ccc(-c2cc(C#CC3=CCCCC3)c(O)c3c2C[C@@]2(N)C[C@@]4(N)[C@H](N(C)C)C(O)=C(C(N)=O)C(=O)[C@@]4(C#N)C(O)=C2C3=O)cc1 [QO] | ** (toxicities less than 25 μg/mL are represented by **)
32 | CC(=O)c1ccc(-c2ccc3c(c2O)C(=O)C2=C(O)[C@]4(C#N)C(=O)C(C(N)=O)=C(O)[C@@H](N(C)C)[C@]4(N)[C@@H](O)[C@]2(N)[C@H]3N)cc1 [QP] | ** (toxicities less than 25 μg/mL are represented by **)
33 | CCOc1ccc(-c2ccc(O)c3c2C[C@@]2(N)C[C@@]4(N)C(N(C)C)C(O)=C(C(N)=O)C(=O)[C@@]4(C#N)C(O)=C2C3=O)cc1CNC(=O)C(F)(F)F (some centres unmarked) [QQ] | * (toxicities greater than >25 μg/ml are represented by *)
34 | COc1ccc(C(=O)Nc2ccc(-c3ccc(O)c4c3C[C@@]3(N)C[C@@]5(N)C(N(C)C)C(O)=C(C(N)=O)C(=O)[C@@]5(C#N)C(O)=C3C4=O)cc2)cc1 (some centres unmarked) [QR] | ** (toxicities less than 25 μg/mL are represented by **)
35 | COC(=O)C(CO)NC(=O)c1cccc(-c2ccc(O)c3c2C[C@@]2(N)C[C@@]4(N)C(N(C)C)C(O)=C(C(N)=O)C(=O)[C@@]4(C#N)C(O)=C2C3=O)c1 (some centres unmarked) [QT] | ** (toxicities less than 25 μg/mL are represented by **)
36 | COc1ccc(-c2ccc(O)c3c2C[C@@]2(N)C[C@@]4(N)C(N(C)C)C(O)=C(C(N)=O)C(=O)[C@@]4(C#N)C(O)=C2C3=O)cc1C=O (some centres unmarked) [QV] | ** (toxicities less than 25 μg/mL are represented by **)
37 | CCC(CC)CCc1ccc(O)c2c1C[C@@]1(N)C[C@@]3(N)C(N(C)C)C(O)=C(C(N)=O)C(=O)[C@@]3(C#N)C(O)=C1C2=O (some centres unmarked) [QX] | ** (toxicities less than 25 μg/mL are represented by **)
38 | CNNC(=O)c1cccc(-c2ccc(O)c3c2C[C@@]2(N)C[C@@]4(N)C(N(C)C)C(O)=C(C(N)=O)C(=O)[C@@]4(C#N)C(O)=C2C3=O)c1 (some centres unmarked) [QY] | * (toxicities greater than >25 μg/ml are represented by *)
39 | CCc1cc(N(C)C)c2c(c1O)C(=O)C1=C(O)[C@]3(C#N)C(=O)C(C(N)=O)=C(O)[C@@H](N(C)C)[C@]3(N)C[C@]1(N)C2 [QZ] | * (toxicities greater than >25 μg/ml are represented by *)
40 | CO/N=C(/C)c1cc(C(C)(C)C)c(O)c2c1C[C@@]1(N)C[C@@]3(N)[C@H](N(C)C)C(O)=C(C(N)=O)C(=O)[C@@]3(C#N)C(O)=C1C2=O [RA] | ** (toxicities less than 25 μg/mL are represented by **)
41 | CN(C)c1ccc(-c2cc(N)c(O)c3c2C[C@@]2(N)C[C@@]4(N)C(N(C)C)C(O)=C(C(N)=O)C(=O)[C@@]4(C#N)C(O)=C2C3=O)cc1 (some centres unmarked) [RB] | * (toxicities greater than >25 μg/ml are represented by *)
